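Compound exposure: 48 hours, 5 concentrations, 96-well plates. The concentration for 50% growth inhibition is given as GI50. TGI: concentration producing complete growth inhibition.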
Legend:
Experiment in all cases: growth of human tumour cells (NCI), 48 h
A498 renal = tested on: A498 renal
RXF 393 renal = tested on: RXF 393 renal
UACC-62 melanoma = tested on: UACC-62 melanoma
M14 melanoma = tested on: M14 melanoma
ACHN renal = tested on: ACHN renal
EKVX NSCLC = tested on: EKVX NSCLC
SK-MEL-28 melanoma = tested on: SK-MEL-28 melanoma
SK-MEL-5 melanoma = tested on: SK-MEL-5 melanoma
MDA-MB-435 = tested on: MDA-MB-435
NCI-H460 lung = tested on: NCI-H460 lung

| Structure (SMILES) | GI50 (A498 renal) [µM] | TGI (A498 renal) [µM] | GI50 (RXF 393 renal) [µM] | TGI (RXF 393 renal) [µM] | GI50 (UACC-62 melanoma) [µM] | TGI (UACC-62 melanoma) [µM] | GI50 (M14 melanoma) [µM] | TGI (M14 melanoma) [µM] | GI50 (ACHN renal) [µM] | TGI (ACHN renal) [µM] | GI50 (EKVX NSCLC) [µM] | TGI (EKVX NSCLC) [µM] | GI50 (SK-MEL-28 melanoma) [µM] | TGI (SK-MEL-28 melanoma) [µM] | GI50 (SK-MEL-5 melanoma) [µM] | TGI (SK-MEL-5 melanoma) [µM] | GI50 (MDA-MB-435) [µM] | TGI (MDA-MB-435) [µM] | GI50 (NCI-H460 lung) [µM] | TGI (NCI-H460 lung) [µM] |
| --- | --- | --- | --- | --- | --- | --- | --- | --- | --- | --- | --- | --- | --- | --- | --- | --- | --- | --- | --- | --- |
| C=C1C(=O)O[C@H]2[C@H]1CC/C(COC(=O)CCC(=O)OC/C1=C/CC[C@@]3(C)O[C@H]3[C@H]3OC(=O)C(=C)[C@@H]3CC1)=C\CC[C@@]1(C)O[C@@H]21 | 10.5 | 23.6 | 0.661 | 2.17 | 1.86 | 6.55 | 1.6 | 5.32 | 0.753 | 2.03 | 2.55 | 11.6 | 1.53 | 3.97 | 2.05 | 5.27 | 1.84 | 4.65 | 4.48 | 17.2 |
| O=C(CC1C(=O)Nc2ccccc2S1=O)Nc1cccc(Cl)c1 (stereo not drawn) |  | 47.3 |  | 45.6 |  | > 76.1 |  | > 65 |  | > 100 |  | > 87.4 |  | > 100 |  | > 46.1 |  | > 100 |  | > 83.2 |
| O=C(/C=N/O)c1c(-c2ccccc2)[nH]c(-c2ccccc2)c1-c1ccccc1 |  | 62.4 |  | 31.6 |  | 28.7 |  | 73.6 |  | 43.4 |  | 19 |  | 39 |  | 32.8 |  | 28.3 |  | 41.8 |
| CC1=C(C)C(=O)C(C(C)C2=C(C)C(=O)C(C)=C(C)C2=O)=C(C)C1=O | 25.2 | > 100 | 31.7 | 82.7 | 19.3 | > 100 | 53.7 | > 100 | 24.5 | > 100 | 32.6 | > 100 |  |  | 12.5 | 64.6 | 39.4 | > 100 | 26.7 | > 100 |
| NS(=O)(=O)c1ccc(-n2nc(-c3ccc(Cl)cc3)cc2C2=CC(=O)C=CC2=O)cc1 | 22.8 | 70.2 | 21.9 | 46.7 | 14.2 | 34.1 | 23 | 42.8 | 20.8 | 35.1 | 28.4 | 91.1 |  |  | 18.2 | 43.5 | 22.9 | 67.1 | 24.3 | 57.4 |
| Nc1nc(Cl)nc2c1ncn2C1O[C@H](CO)[C@@H](O)[C@@H]1F (stereo partly drawn) | 0.682 | 14.3 | 1.48 | 35.3 | 0.362 | > 100 | 0.0876 | 0.292 | 0.33 |  | 1.51 | > 100 | > 100 | > 100 | 0.34 | > 100 | 0.485 | > 100 | 0.37 | > 100 |
| C=C1C(=O)O[C@H]2[C@H]1CC/C(Cn1cc(CCC)nn1)=C\CC[C@@]1(C)O[C@@H]21 | 21.5 | 36.6 | 4.8 | 16.5 |  |  | 3.99 | 17.9 | 3.81 | 15.6 | 11.5 | 23.6 |  |  | 15.3 | 29.6 | 10.4 | 24.9 | 21.2 | 41.5 |
| CC(C)(C)c1ccc(-c2nnc(SCc3ccc(Cl)cc3)n2-c2cccc(C(F)(F)F)c2)cc1 |  | > 100 |  | > 100 |  | > 100 |  | > 100 |  | > 100 |  | 81.9 |  | > 100 |  | > 100 |  | > 100 |  | > 100 |
| COc1ccc(/C=C(/C(=O)N2CCNCC2)c2cc(OC)c(OC)c(OC)c2)cc1O | 1.22 | 7.33 | 2.95 | > 100 | 3.15 | > 100 | 3.83 | > 100 | 49.5 | > 100 | 6.43 | > 100 | 8.84 | > 100 | 4.71 | 56.4 | 0.418 | 1.8 | 3.42 | > 100 |
| CC(C)[C@]12O[C@H]1[C@@H]1O[C@]13[C@]1(O[C@H]1C[C@H]1c4c(C(=O)c5ccccc5)oc(OC(=O)c5ccccc5)c4CC[C@@]13C)[C@@H]2O | 0.0179 | 0.0614 | 0.0196 | 0.0497 | 0.0134 | 0.0333 | 0.0236 | 0.0688 | 0.0174 | 20.7 | 0.0359 | 1.11 | 0.0184 | 0.0612 |  |  | 0.0151 | 0.0366 |  | 11.4 |
| COc1cc2c(/C=C3\C(=O)Nc4ccc(Br)cc43)c(Cl)n(C)c2cc1C | 0.419 | 1.62 | 1.71 | 7.33 | 0.618 | 12.9 | 1.8 | 6.01 | 2.26 | 11.2 | 3.76 | 34.1 | 0.418 | 3.49 | 1.41 | 2.99 | 0.249 | 0.802 | 0.916 | 4.69 |
| COc1ccccc1Nc1nc(-c2cc3cccc(C(F)(F)F)c3oc2=O)cs1 | 0.0366 | 38.9 | 0.0657 | 30.7 | 0.154 | > 81.6 | 0.111 |  | 0.106 | > 100 | 0.164 | > 100 | 1.64 | > 100 | 0.169 | 0.627 | 0.0297 | 0.164 | 0.218 | > 39.5 |
| Cn1cccc1-c1cc(-c2ccc(Br)cc2)nc(N)c1C#N | 91.8 | > 100 | 30.3 | > 100 | 33.3 | > 100 |  |  | > 100 | > 100 | > 100 | > 100 | > 100 | > 100 | > 100 | > 100 | > 100 | > 100 | > 100 | > 100 |
| O=C1c2cc3c(cc2-c2c1c1ccc([N+](=O)[O-])cc1c(=O)n2CCCCl)OCO3 | 0.367 | 5.93 |  |  | 0.176 | 2.5 | 1.52 | > 100 | 0.0707 | 0.234 | 6.13 | > 100 | 0.525 | > 100 | 0.246 | 2.59 | 1.22 | > 100 | 0.0277 | > 100 |

Source: PubChem BioAssay (NCI)
